The text below walks through data of publication PMC9546084, “Effects of Unsuppressed Endogenous Insulin on Pharmacokinetics and/or Pharmacodynamics of Study Insulin in the Healthy: A Retrospective Study” (Clinical Pharmacology in Drug Development, 2022).

The conditions of series [1]: PK corrected by C-peptide; cited from earlier work. Here is the method: In studies in which specific assays for the tested insulin are lacking, C‐peptide was always used to correct endogenous insulin.[37], [38] Some researchers[39] still doubted the use of C‐peptide to correct endogenous insulin because some PK parameters were not consistent (eg, a peak of glargine in plasma occurring at 12 hours[40] differs from those observed in subjects with type 1 diabetes where the increase occurs between ≈3 and 6 hours after the first injection[41] and at steady state[42]). Owens[19] reported the exogenous insulin estimated from C‐peptide was nearly the same as what was true ...

Series [2] is described as follows: manual euglycemic clamp, glucose infusion rate (PD) after subcutaneous insulin aspart. It is filed as in vivo, healthy Chinese male volunteers. To be noted: for GIRmax (maximum glucose infusion rate): 0.2 IU/kg NovoRapid s.c., 8-hour manual euglycemic clamp; for GIRmax (maximum glucose infusion rate) / tGIRmax (time of GIRmax) / AUCGIR,0-8h: mean ± SD; for GIR AUC from time 0.5 to 2 hours after correction for clamped glucose from 0.5 to 2 hours / AUCGIR,0-8h after correction for the overall clamped glucose / tGIRmax (time of GIRmax) / AUCGIR,0-8h: 0.2 IU/kg s.c.; for AUCGIR,0-8h after correction for the overall clamped glucose: analysis of variance with clamped glucose as covariate; for AUCGIR,0-8h: uncorrected. The procedure: (§1) From 3 days before the dosing day on, participants were instructed to abstain from drinking alcohol, smoking tobacco, engaging in strenuous exercise, and ingesting caffeine. Participants came to the research center at approximately 6:00 PM the day before drug administration to ensure an overnight fasting condition of 10 to 12 hours the next morning. Throughout the clamp, the subjects remained fasting and in a supine position. A 20‐gauge polyethylene cannula was inserted into an antecubital vein for infusion of 20% dextrose, and a second 18‐gauge catheter was inserted retrogradely into a wrist vein on the dorsum of the hand to draw blood. The hand for blood drawing was maintained continuously in a heated blanket at 55 to 65°C, allowing sampling of arterialized venous blood. After recording the basal blood glucose level (defined as the mean of the glucose measurement at −30, −20, and −10 minutes), the subjects received a 0.2 IU/kg dose of NovoRapid (Novo Nordisk, Bagsværd, Denmark) by subcutaneous injection into a lifted abdominal skin fold. Blood samples were obtained at the bedside for immediate determination of whole blood glucose concentrations every 5 minutes from 0 to 240 minutes and every 10 minutes from 240 to 480 minutes. During the manual euglycemic clamp procedure, the glucose infusion rate (GIR) was adjusted on the basis of the obtained glucose measurements to maintain euglycemia. A 4‐mL blood sample was collected at each of the following points for analysis of C‐peptide, human insulin, and IAsp levels: −30 and 0 minutes (before dosing) and 10, 20, 30, 40, 50, 60, 90, 120, 150, 180, 210, 240, 270, 300, 360, 420, and 480 minutes after dosing. The baselines for each of C‐peptide, human insulin, and IAsp were defined as the mean of the −30 and 0 minute (before dosing) measurements.
(§2) Whole blood glucose concentrations were tested with a glucose analyzer (Biosen C_line GP+, Neckar Healthcare, Co., Ltd., Magdeburg, Germany) using an automated glucose oxidase technique with a measuring range of 9 to 900 mg/dL and a high precision of 1.5%. Human insulin levels were determined using an ultrasensitive enzyme‐linked immunosorbent assay (ELISA) with monoclonal antibodies that have little or no cross‐reactivity to insulin analogs whose ranges of quantification were 0.0065 to 0.87 ng/mL for human insulin.[22] C‐peptide levels were analyzed using a solid‐phase 2‐site ELISA method based on the direct sandwich technique in which 2 monoclonal antibodies are directed against separate antigenic determinants on the C‐peptide molecule with a measuring range of 0.06 to 9 ng/mL, with an intra‐assay coefficient of variation of 2.87% to 4.50%.[23] IAsp concentrations were assessed by means of an ultra‐performance liquid chromatography–tandem mass spectrometry method, [25] at Covance Laboratories in Shanghai that had no detectable cross‐reactivity with human insulin. Solid‐phase extraction was performed. Liquid chromatography separation was achieved using an Acquity UPLC CSH C18+ column (50 × 2.1 × 1.7 μm; Waters Corp., Milford, Massachusetts). A 20‐μL injection with a 0.60 mL/min flow of water with 0.1% of acetic acid (solvent A) and acetonitrile with 0.1% of acetic acid (solvent B) was used. The gradient elution was as follows: the initial 17.5% B was increased to 29.5% over 3.0 minutes, 29.5% to 50.0% over 0.5 minutes, 50% to 98% over 0.5 minutes, remained at 98% for 1.5 minutes, and returned to initial conditions over 0.5 minute. A mass spectrometer used in the positive ionization mode (ESI+) was used for the analysis of the compounds. […] The cone voltage and collision energy were adjusted to maximize the intensity of the protonated ion and to optimize the signal of aspart insulin: m/z 1133.4→971.8 and for the internal standard bovine insulin 1123.5→963.8. The lower limit of quantification was 0.2 ng/mL, the inter‐ and intravariability were 7.0% and 7.9%, respectively. […]

The nature of series [3]: adverse reactions/events during clamp and follow-up. It is filed as in vivo, healthy Chinese male volunteers. Particulars: 33 healthy men; 0.2 IU/kg s.c.; clamp procedures and follow-up period. The source says: Thirty‐three healthy male volunteers (22 in group A and 11 in group B) undergoing a manual euglycemic clamp study were enrolled in this study.
Series [4] can be described thus: pharmacokinetics of insulin aspart during the euglycemic clamp (UPLC-MS/MS). In kind it is in vivo, healthy Chinese male volunteers. To be noted: 0.2 IU/kg s.c., mean ± SD; for CIAsp,max (maximum plasma concentration of IAsp): UPLC-MS/MS. The procedure:
as §1, §2

For glargine, in series [1], the “time of peak of glargine in plasma” value was 12 h.
Turning to insulin aspart [IAsp], the “GIRmax (maximum glucose infusion rate)” value in series [2] (group A ((CPpostdosing)max > CPbaseline, n = 22)) is 8.46 ± 2.43 mg/kg/min. Also, in series [2] (group A (n = 22)), the “GIR AUC from time 0.5 to 2 hours after correction for clamped glucose from 0.5 to 2 hours” value was found to be 596 ± 38 mg/kg, the “AUCGIR,0-8h after correction for the overall clamped glucose” value stood at 1789 ± 107 mg/kg, the “tGIRmax (time of GIRmax)” value came out at 111 ± 40.6 min and the “AUCGIR,0-8h” value is reported as 1815 ± 551 mg/kg. Moreover, the “GIRmax (maximum glucose infusion rate)” value in series [2] (group B ((CPpostdosing)max ≤ CPbaseline, n = 11)) was 7.90 ± 1.68 mg/kg/min. In addition, in series [2] (group B (n = 11)), the “GIR AUC from time 0.5 to 2 hours after correction for clamped glucose from 0.5 to 2 hours” value was found to be 520 ± 56 mg/kg, the “AUCGIR,0-8h after correction for the overall clamped glucose” value worked out at 1380 ± 157 mg/kg, the “tGIRmax (time of GIRmax)” value came out at 113 ± 33.9 min and the “AUCGIR,0-8h” value amounted to 1327 ± 306 mg/kg. In addition, the “adverse reaction after injection” value in series [3] is given as “no adverse reaction in any subject”. For the same substance, in series [4] (group A (n = 22)), the “CIAsp,max (maximum plasma concentration of IAsp)” value was 4.72 ± 1.46 ng/mL, the “AUCIAsp,0-8h” value was determined as 527 ± 97.1 ng·min/mL and the “time of CIAsp,max” value was determined as 44.8 ± 11.0 min. Moreover, in series [4] (group B (n = 11)), the “CIAsp,max (maximum plasma concentration of IAsp)” value is given as 5.53 ± 1.61 ng/mL, the “AUCIAsp,0-8h” value was 543 ± 97.2 ng·min/mL and the “time of CIAsp,max” value was 47.3 ± 11.0 min.
